{"source": "patent US8044057B2", "about": "“Methods for suppressing an immune response or treating a proliferative disorder” (The United States of America as represented by the …, priority 2003, dated 2011)", "key": {"A549 cells": {"test_system": "A549 cells", "assay": "Western blot of cell cycle inhibitors, cyclins and phospho-Rb in A549 cells", "format": "cell-based, human", "description": "FIGS. 3A-3B are bar graphs and digital images showing the effect of LY303511 on the levels of cell cycle inhibitors and cyclins. A549 cells (˜1×10^6 cells per 100-mm dish) were grown for 48 h before addition of 0.1% DMSO, 100 μM LY303511, or rapamycin, 200 ng/ml, for 0, 12, or 24 hours. At the indicated times, cells were homogenized and stored at −80° C. For Western blot analyses, samples (70 μg) of lysate proteins separated by SDS-PAGE were transferred to nitrocellulose membranes and reacted with the following antibodies: A. Phospho-S6K T389 (pS6K), p27 Kip1, p21 Cip1, phospho-Rb S807/S811, or B. Cyclin A, Cyclin B, Cyclin D, and Cyclin E. All blots are from one experiment. Data below (relative density) are means of densitometric values from duplicate dishes treated with inhibitors for 24 hours relative to DMSO control=1.0 in three experiments. *p<0.05 vs. DMSO control by Student's t-test.\nIn another experiment, A549 cells were grown to sub-confluence in serum-containing media, and incubated with a vehicle, 100 mcM LY303511, or rapamycin, 200 ng/ml for 0, 12, or 24 hours. Cells were lysed, and proteins separated by SDS-PAGE before transfer to nitrocellulose membranes. Membranes were incubated with antibodies against p27Kip1, p21 Cip1 orphospho-P70 S6 kinase T389."}, "recombinant CK2": {"biological_target": "T1, recombinant CK2 (Homo sapiens, UniProt P68400)", "T1 construct": "purchased Upstate Biotechnology 17-132 (number of the activity kit, not of the enzyme)", "T1 sequence (P68400 whole entry)": "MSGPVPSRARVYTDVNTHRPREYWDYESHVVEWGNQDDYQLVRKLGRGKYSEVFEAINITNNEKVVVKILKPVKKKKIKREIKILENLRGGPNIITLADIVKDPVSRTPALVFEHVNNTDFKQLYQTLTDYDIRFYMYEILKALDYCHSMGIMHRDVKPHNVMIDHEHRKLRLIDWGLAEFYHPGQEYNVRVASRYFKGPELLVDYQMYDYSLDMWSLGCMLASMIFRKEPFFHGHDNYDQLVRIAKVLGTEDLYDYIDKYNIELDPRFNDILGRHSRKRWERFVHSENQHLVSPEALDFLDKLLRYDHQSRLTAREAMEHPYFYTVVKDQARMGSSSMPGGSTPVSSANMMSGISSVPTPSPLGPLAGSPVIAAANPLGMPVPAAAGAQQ", "T1 sequence (P67870 2-215 partner limits assumed)": "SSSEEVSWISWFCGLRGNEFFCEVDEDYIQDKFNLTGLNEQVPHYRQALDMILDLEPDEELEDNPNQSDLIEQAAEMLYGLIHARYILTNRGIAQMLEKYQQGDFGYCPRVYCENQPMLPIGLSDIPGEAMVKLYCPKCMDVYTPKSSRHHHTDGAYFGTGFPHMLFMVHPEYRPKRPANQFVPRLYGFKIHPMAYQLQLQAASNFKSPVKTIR", "assay": "Casein kinase 2 activity kit, 32P incorporation into substrate peptide", "format": "biochemical", "description": "FIGS. 5A-5B are bar graphs showing that LY303511 inhibits the cell cycle by causing combined G1 and G2/M arrest and that LY303511 inhibits CK2 activity. For the data shown in FIG. 5A, PASM cells were cultured in medium with FBS for 48 hours before the addition of 0-100 μM LY303511 without or with raparnycin, 400 ng/ml, for 24 hours. Cells were then harvested and incubated with propidium iodide for 2 hours before counting using a Becton-Dickson FACSCalibur. Data are the means (±SEM) of percentages of cells in G1, S, or G2/M phase of the cell cycle in three experiments with duplicate assays. *p<0.05 vs. DMSO control, or †p<0.05 vs. 10 μM LY303511, by Student's t—test. FIG. 5B is a bar graph showing that LY303511 or LY294002 inhibits CK2 in vitro. As per the manufacturer (Upstate Biotechnologies), 0 or 100 ng of recombinant CK2 were incubated with CK2 substrate peptide and ^32P-γ-ATP for 10 min with 1% DMSO or inhibitors as indicated. Data are the means of values for samples with inhibitors expressed as percentage of that for control, which was (mean±SEM) 0.2±0.03 pmol phosphate/100 ng protein/10 min. Data are from three experiments performed in duplicate. *p<0.05 by Student's t-test when compared to DMSO control.\nOne specific assay for casein kinase 2 activity is available commercially as a kit from Upstate Biotechnology (New York). The assay is based on phosphorylation of a specific substrate (CK-2 substrate peptide) using the transfer of the gamma-phosphate of ^32P-ATP by casein kinase 2 during a 10 minute incubation at 30° C. The phosphorylated substrate is then separated from the residual ^32P-ATP using P81 phosphocellulose paper, and quantified by scintillation counting.\nCasein kinase 2 (CK2) activity (counts per rninute) was measured using a casein kinase 2 activity kit (Upstate Biotechnology catalogue number 17-132) by incubating recombinant 100 ng CK2, magnesium/ATP cocktail (10 mcCi ^32P-garnma-ATP, 0.675 micromoles MgCl2, 4.5 nmoles ATP), and 10 micromoles peptide substrate (arnino acid sequence RRRDDDSDDD (SEQ ID NO: 1) in 50 mcl assay buffer without or with the indicated concentrations of DMSO (1%), LY294002, LY303511, or rapamycin for 10 minutes at 30° C. Assays were stopped with 20 mcl of 40% trichloroacetic acid, and 25 mcl were spotted on P81 phosphocellulose paper squares before washing 3 times with 0.75% phosphoric acid, and once with acetone. 32P incorporation on the substrate peptide was detected by counting the phosphocellulose squares in 5 ml scintillation fluid using a Packard 100 Tri-Carb liquid scintillation counter.\nMeasurement of casein kinase 2 (CK2) activity: CK2 activity (counts per minute) was measured using a CK2 activity kit (Upstate, Charlottesville, Va.) by incubating 100 ng of recombinant CK2, rnagnesium/ATP cocktail (10 μCi ^32P-gamma-ATP, 0.675 μmol MgCl2, 4.5 nmol ATP), and 10 μmol peptide substrate (amino acid sequence RRRDDDSDDD) in 50 μl assay buffer (20 mM MOPS, pH 7.2, 5 mM EGTA, 25 mM β-glycerol phosphate, 1 mM sodium orthovanadate, 1 mM dithiothreitol) without or with the indicated concentrations of LY294002, LY303511, wortmannin or rapamycin in 1% DMSO for 10 min at 30° C. Assays were stopped with 20 μl of 40% trichloroacetic acid, and samples (25 μl) of supernatant were applied to P81 phosphocellulose paper squares, which were then washed three times with 0.75% phosphoric acid, and once with acetone. ^32P in the substrate peptide was quantified using a Packard 100 Tri-Carb liquid scintillation counter on phosphocellulose squares in 5 ml of scintillation fluid. Activity is expressed as pmol phosphate incorporated per 10 minutes. CK2 activity measured in the presence of inhibitors was divided by that measured for the DMSO control (=100% control)."}, "[1]": {"details": "100 mcM LY303511 or rapamycin 200 ng/ml, 12 and 24 hours"}}}
{"smiles": "O=c1cc(N2CCNCC2)oc2c(-c3ccccc3)cccc12", "note": "[LY303511, 2-(4-piperazinyl)-8-phenyl-4H-1-benzopyran-4-one]", "values": [{"measurement": "phosphorylation of Rb (S807/S811)", "setting": "A549 cells; 100 mcM LY303511", "value": "reduced the phosphorylation of Rb"}, {"measurement": "levels of cyclin A and B", "setting": "A549 cells; 100 mcM LY303511 or rapamycin 200 ng/ml", "value": "decreased levels of cyclin A and B"}, {"measurement": "p21 Cip1 level", "setting": "A549 cells; [1]", "value": "significant increase in p21 Cip1"}, {"measurement": "p27Kip1 level", "setting": "A549 cells; [1]", "value": "accumulation of p27Kip1"}, {"measurement": "CK2 activity", "setting": "recombinant CK2; 100 ng recombinant CK2, 10 min at 30° C.", "value": "concentration-dependent inhibition of CK2 activity"}, {"measurement": "preferential inhibition as compared to PI3K", "setting": "recombinant CK2; P70 S6 kinase and casein kinase 2 versus PI3K", "value": "preferentially inhibits P70 S6 kinase and casein kinase 2 as compared to PI3K"}, {"measurement": "IC50", "setting": "recombinant CK2; recombinant CK2 in vitro, read-out: IC50 for casein kinase 2", "value": "10 to 100", "unit": "µM"}]}
